Reference: publication PMC11718471 (World Journal of Diabetes, 2025)

Assays:
blood glucose = test: Euglycemic clamp, glucose infusion rate; type: in vivo, human; details: healthy subjects, 0.2 IU/kg s.c., 8-hour euglycemic clamp, 20% dextrose, group A (target BG 2.5% below baseline), n = 15, mean ± SD
[1] = Plasma IAsp exposure during 8-hour euglycemic clamp; type: in vivo, human; details: healthy subjects, 0.2 IU/kg s.c., group A (basal BG < 4.00 mmol/L, target BG 2.5% below baseline), before PSM, n = 15, LC-MS/MS, trapezoidal, mean ± SD

insulin aspart [IAsp]
AUCGIR, 0-8 h (blood glucose; after PSM): 1433 ± 400 mg/kg
AUCGIR, 0-8 h (blood glucose; before PSM): 1433 ± 400 mg/kg
AUCIAsp, 0-8 h [1]: 566 ± 51 ng·h/mL
